Assay results taken from PubChem BioAssay AID1919016 (Molecular Pharmacology Branch, DTP, NCI, 2023).

Test system: NCI-H196 complex spheroid growth, percent test/control
Experiment: Anticancer human tumor NCI-H196 cell line growth inhibition [AhR];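 also: seven days of drug exposure starting three days after plating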;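 as to viability, T/C: 100% = DMSO vehicle control wells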
Details: for IC50: curve of first compound; for viability, T/C: stronger effect = lower value
Method in brief: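 Agents were dosed in half-log steps down from roughly clinical Cmax, or from 10 microM where Cmax was unknown, alone and with AhR antagonists. Read-out: percent test/control growth of tumor spheroids containing HUVEC and MSC stromal cells.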

[1] = second compound 0.1 µM, first compound 0.0316 µM
[2] = second compound 0.1 µM, first compound 0.1 µM
[3] = second compound 0.1 µM, first compound 0.316 µM
[4] = second compound 0.1 µM, first compound 1 µM
[5] = second compound 0.1 µM, first compound 3.16 µM
[6] = second compound 0.1 µM, first compound 10 µM
[7] = second compound 0.316 µM, first compound 0.0316 µM
[8] = second compound 0.316 µM, first compound 0.1 µM
[9] = second compound 0.316 µM, first compound 0.316 µM
[10] = second compound 0.316 µM, first compound 1 µM
[11] = second compound 0.316 µM, first compound 3.16 µM
[12] = second compound 0.316 µM, first compound 10 µM
[13] = second compound 1 µM, first compound 0.0316 µM
[14] = second compound 1 µM, first compound 0.1 µM
[15] = second compound 1 µM, first compound 0.316 µM
[16] = second compound 1 µM, first compound 1 µM
[17] = second compound 1 µM, first compound 3.16 µM
[18] = second compound 1 µM, first compound 10 µM
[19] = second compound 3.16 µM, first compound 0.0316 µM
[20] = second compound 3.16 µM, first compound 0.1 µM
[21] = second compound 3.16 µM, first compound 0.316 µM
[22] = second compound 3.16 µM, first compound 1 µM
[23] = second compound 3.16 µM, first compound 3.16 µM
[24] = second compound 3.16 µM, first compound 10 µM
[25] = second compound 10 µM, first compound 0.0316 µM
[26] = second compound 10 µM, first compound 0.1 µM
[27] = second compound 10 µM, first compound 0.316 µM
[28] = second compound 10 µM, first compound 1 µM
[29] = second compound 10 µM, first compound 3.16 µM
[30] = second compound 10 µM, first compound 10 µM
[31] = second compound 0.1 µM, first compound 0.00316 µM
[32] = second compound 0.1 µM, first compound 0.01 µM
[33] = second compound 0.316 µM, first compound 0.00316 µM
[34] = second compound 0.316 µM, first compound 0.01 µM
[35] = second compound 1 µM, first compound 0.00316 µM
[36] = second compound 1 µM, first compound 0.01 µM
[37] = second compound 3.16 µM, first compound 0.00316 µM
[38] = second compound 3.16 µM, first compound 0.01 µM
[39] = second compound 10 µM, first compound 0.00316 µM
[40] = second compound 10 µM, first compound 0.01 µM

SMILES	IC50 (second compound 0.1 µM) [nM]	IC50 (second compound 0.316 µM) [nM]	IC50 (second compound 1 µM) [nM]	IC50 (second compound 3.16 µM) [nM]	IC50 (second compound 10 µM) [nM]	viability, T/C [1] [%]	viability, T/C [2] [%]	viability, T/C [3] [%]	viability, T/C [4] [%]	viability, T/C [7] [%]	viability, T/C [8] [%]	viability, T/C [9] [%]	viability, T/C [10] [%]	viability, T/C [13] [%]	viability, T/C [14] [%]	viability, T/C [15] [%]	viability, T/C [19] [%]	viability, T/C [20] [%]	viability, T/C [25] [%]	viability, T/C [26] [%]	other results
CC(C)c1c(-c2ccccc2)nc2c(C#N)c[nH]n2c1=O + CC(CO)NC(=O)c1cc(-c2ccc(Cl)cc2)nn(-c2cnn(C)c2)c1=O	> 10000	> 10000	> 10000	> 10000	> 10000	118	107	111	105	116	128	109	112	111	114	117	109	111	116	127	viability, T/C [5]: 104%; viability, T/C [6]: 102%; viability, T/C [11]: 108%; viability, T/C [12]: 111%; viability, T/C [16]: 121%; viability, T/C [17]: 118%; viability, T/C [18]: 104%; viability, T/C [21]: 118%; viability, T/C [22]: 114%; viability, T/C [23]: 117%; viability, T/C [24]: 110%; viability, T/C [27]: 114%; viability, T/C [28]: 119%; viability, T/C [29]: 111%; viability, T/C [30]: 108%
CC[C@@]1(O)C(=O)OCc2c1cc1n(c2=O)Cc2cc3c(CN(C)C)c(O)ccc3nc2-1 + Cc1ccccc1N=Nc1ccc(NC(=O)c2ccnn2C)c(C)c1	> 100	> 100	> 100	> 100	> 100	112	102			93.6	96.9			99.7	93.5		91.1	103	102	97	viability, T/C (second compound 0.1 µM, first compound 0.000316 µM): 92.3%; viability, T/C (second compound 0.1 µM, first compound 0.001 µM): 111%; viability, T/C [31]: 93.5%; viability, T/C [32]: 88.8%; viability, T/C (second compound 0.316 µM, first compound 0.000316 µM): 105%; viability, T/C (second compound 0.316 µM, first compound 0.001 µM): 103%; viability, T/C [33]: 98.6%; viability, T/C [34]: 90.8%; viability, T/C (second compound 1 µM, first compound 0.000316 µM): 101%; viability, T/C (second compound 1 µM, first compound 0.001 µM): 112%; viability, T/C [35]: 98.3%; viability, T/C [36]: 98.4%; viability, T/C (second compound 3.16 µM, first compound 0.000316 µM): 97.2%; viability, T/C (second compound 3.16 µM, first compound 0.001 µM): 101%; viability, T/C [37]: 109%; viability, T/C [38]: 86.5%; viability, T/C (second compound 10 µM, first compound 0.000316 µM): 95%; viability, T/C (second compound 10 µM, first compound 0.001 µM): 97.7%; viability, T/C [39]: 89%; viability, T/C [40]: 98.3%
COc1cc(C2c3cc4c(cc3C(OC3OC5COC(C)OC5C(O)C3O)C3COC(=O)C23)OCO4)cc(OC)c1O (stereo not given) + Cc1ccccc1N=Nc1ccc(NC(=O)c2ccnn2C)c(C)c1	> 10000	> 10000	> 10000	> 10000	> 10000	97.3	93.5	87.4	86.2	92.1	95	96.8	89.8	93.5	94.6	93.5	89	94.7	85.7	84.3	viability, T/C [5]: 87.9%; viability, T/C [6]: 76.8%; viability, T/C [11]: 91.2%; viability, T/C [12]: 75.6%; viability, T/C [16]: 92.1%; viability, T/C [17]: 100%; viability, T/C [18]: 74.3%; viability, T/C [21]: 91.4%; viability, T/C [22]: 79.5%; viability, T/C [23]: 87.1%; viability, T/C [24]: 75.3%; viability, T/C [27]: 89.3%; viability, T/C [28]: 93%; viability, T/C [29]: 88%; viability, T/C [30]: 78.9%

The next lines start with results.

IC50 (second compound 0.1 µM) [nM]	IC50 (second compound 0.316 µM) [nM]	IC50 (second compound 1 µM) [nM]	IC50 (second compound 3.16 µM) [nM]	IC50 (second compound 10 µM) [nM]	SMILES	viability, T/C [1] [%]	viability, T/C [2] [%]	viability, T/C [3] [%]	viability, T/C [4] [%]	viability, T/C [7] [%]	viability, T/C [8] [%]	viability, T/C [9] [%]	viability, T/C [10] [%]	viability, T/C [13] [%]	viability, T/C [14] [%]	viability, T/C [15] [%]	viability, T/C [19] [%]	viability, T/C [20] [%]	viability, T/C [25] [%]	viability, T/C [26] [%]	other results
665	662	668	646	875	COc1cccc2c1C(=O)c1c(O)c3c(c(O)c1C2=O)CC(O)(C(=O)CO)CC3OC1CC(N)C(O)C(C)O1 (stereo not given) + Cc1ccccc1N=Nc1ccc(NC(=O)c2ccnn2C)c(C)c1	113	102	79.4	36.2	101	100	76.8	36.7	99.5	105	78.5	91.5	93.8	97.2	92.2	viability, T/C [5]: 3.08%; viability, T/C [6]: 7.85%; viability, T/C [11]: 1.54%; viability, T/C [12]: 5.07%; viability, T/C [16]: 35.9%; viability, T/C [17]: 2.43%; viability, T/C [18]: 8.49%; viability, T/C [21]: 76.6%; viability, T/C [22]: 34.7%; viability, T/C [23]: 2.43%; viability, T/C [24]: 13%; viability, T/C [27]: 90.7%; viability, T/C [28]: 44.3%; viability, T/C [29]: 2.3%; viability, T/C [30]: 12.7%
> 10000	> 10000	> 10000	> 10000	> 10000	Nc1ccn(C2OC(CO)C(O)C2(F)F)c(=O)n1 (stereo not given) + Cc1ccccc1N=Nc1ccc(NC(=O)c2ccnn2C)c(C)c1	88.8	85.5	53.4	52.1	91.4	88.2	58.7	54	88.7	90.4	62.5	93.3	91.3	85.2	90.8	viability, T/C [5]: 57.6%; viability, T/C [6]: 59.6%; viability, T/C [11]: 54.5%; viability, T/C [12]: 60.1%; viability, T/C [16]: 53.2%; viability, T/C [17]: 56.1%; viability, T/C [18]: 60.2%; viability, T/C [21]: 62.7%; viability, T/C [22]: 57.1%; viability, T/C [23]: 55%; viability, T/C [24]: 55.9%; viability, T/C [27]: 75.9%; viability, T/C [28]: 61.9%; viability, T/C [29]: 60.1%; viability, T/C [30]: 64.3%
> 1000	> 1000	> 1000	> 1000	> 1000	Nc1ncn(C2CC(O)C(CO)O2)c(=O)n1 (stereo not given) + Cc1ccccc1N=Nc1ccc(NC(=O)c2ccnn2C)c(C)c1	94.7	94.4	104	96.6	108	103	108	96.4	106	101	84.9	105	86.4	87.6	86.7	viability, T/C [31]: 92.6%; viability, T/C [32]: 105%; viability, T/C [33]: 104%; viability, T/C [34]: 104%; viability, T/C [35]: 88.7%; viability, T/C [36]: 104%; viability, T/C [16]: 94.5%; viability, T/C [37]: 97%; viability, T/C [38]: 86.9%; viability, T/C [21]: 92.5%; viability, T/C [22]: 89.8%; viability, T/C [39]: 90%; viability, T/C [40]: 97.3%; viability, T/C [27]: 78.7%; viability, T/C [28]: 83%
